From US20240294551A1 (AMGEN INC., priority 2022, published 2024) come the findings set out here.

In assay [1] the target is His-tagged KRAS G12D protein (Homo sapiens (Human), UniProt P01116, G12D). Nature of the assay: KRAS G12D TR-FRET Assay. Particulars: read-out: KRAS G12D Binding IC50. It counts as binding. Summed up:
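His-tagged KRAS G12D (diluted to 20 nM in pH 7.4 HEPES buffer with 10 mM MgCl2 and 10 μM GDP) was preincubated with titrated compound for 30 min at room temperature. Biotinylated KRPep-2d peptide (diluted to 20 nM) was then added for 1 h, and displacement was monitored by TR-FRET.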

The subject of assay [2] is Phosphorylation of ERK1/2 in AsPC-1 cells. Kind of assay: Phospho-ERK1/2 MSD Assay. It counts as cell-based, human. The following applies: Homo sapiens, ASPC1, 2 h, read-out: 2 h p-ERK (AsPC-1 cells), IC50. Summed up: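 Read-out: MSD electrochemiluminescent detection of phosphorylated ERK1/2 in whole-cell lysates, fitted to a 4-parameter logistic curve for IC50. Prior to lysis, AsPC-1 cells (25,000 per well) received a 2 h compound dose-response at 37 °C.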

The test system of assay [3] is AsPC-1 cells. Kind of assay: AsPC-1 CTG Assay (CellTiter-Glo cell viability). It counts as cell-based, human. Particulars: Homo sapiens, ASPC1, 72 h, AsPC-1, 72 h; first value of the cell; read-out: G12D/C/V Cell Proliferation CTG (72 h) AsPC-1. Summed up: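 Human pancreatic AsPC-1 or colon SW620 cells in RPMI 1640 with 10% FBS, seeded overnight, then exposed to serially diluted compound for 72 h at 37 °C. CellTiter-Glo luminescence normalized to DMSO control; IC50 from a 4-parameter logistic model.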

Assay [4] deals with GDP-bound KRAS protein (aa 1-169), containing both G12D and C118A amino acid substitutions (Homo sapiens (Human), UniProt P01116, C118A/G12D). Nature of the assay: KRAS G12D Coupled Nucleotide Exchange Assay. Particulars: read-out: KRAS G12D Coupled Exchange IC50. It counts as biochemical.
Chain of GDP-bound KRAS protein (aa 1-169), containing both G12D and C118A amino acid substitutions (P01116 other isoform, or with tags, fused parts or gaps G12D/C118A): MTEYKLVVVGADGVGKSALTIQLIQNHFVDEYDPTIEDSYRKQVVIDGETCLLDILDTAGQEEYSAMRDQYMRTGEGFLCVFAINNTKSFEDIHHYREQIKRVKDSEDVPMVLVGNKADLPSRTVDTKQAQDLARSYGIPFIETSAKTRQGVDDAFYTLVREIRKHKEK
For assay [5], the system named is SW620 cells. Kind of assay: SW620 CTG Assay (CellTiter-Glo cell viability). It counts as cell-based, human. Particulars: Homo sapiens, SW-620; SW620, 72 h; third value of the cell; read-out: G12D/C/V Cell Proliferation CTG (72 h) SW620. As for the experimental part:
AsPC-1 and SW620 CTG Assay Protocols
AsPC-1 (human pancreatic adenocarcinoma; ATCC CRL-1682) or SW620 (human colon adenocarcinoma; ATCC CCL-227) cells were cultured in RPMI 1640 medium containing 10% fetal bovine serum and 1× penicillin/streptomycin/L-glutamine. Cells were seeded in 384-well plates at a density of 3.33E+04 cells/mL and incubated at 37° C., 5% CO2, overnight. Serially-diluted compound or DMSO was added to the cells, and plates were incubated at 37° C., 5% CO2 for 72 h. Cell viability was measured using a CellTiter-Glo® Luminescent Cell Viability Assay kit (Promega) according to the manufacturer's protocol. The luminescence signal of treated samples was normalized to DMSO control, and data were analyzed using a 4-parameter logistic model to calculate IC50 values.

Chain of His-tagged KRAS G12D protein (P01116 other isoform, or with tags, fused parts or gaps G12D): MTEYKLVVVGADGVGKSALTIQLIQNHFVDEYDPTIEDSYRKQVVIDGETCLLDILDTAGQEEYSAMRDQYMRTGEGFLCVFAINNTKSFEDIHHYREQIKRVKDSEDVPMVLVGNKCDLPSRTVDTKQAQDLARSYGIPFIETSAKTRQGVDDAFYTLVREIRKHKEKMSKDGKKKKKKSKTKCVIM

`CN1C(=O)CCCCc2c(Cl)cc3[nH]ncc3c2-c2ncc3c(nc(OC[C@@]45CCCN4C[C@H](F)C5)nc3c2F)N2CCC[C@@H]1C2` [Example 53, (17R)-9-chloro-30-fluoro-24-(((2R,7aS)-2-fluorotetrahydro-1H-pyrrolo[1,2-a]pyrrol-7a(5H)-yl)methoxy)-16-methyl-5,6,16,21,23,25,29-heptaazahexacyclo[24.3.1.1~17,21~.0~2,10~.0~3,7~.0~22,27~]hentriaconta-1(30),2,4,7,9,22,24,26,28-nonaen-15-one]: the IC50 in assay [1] was determined as 8 nM; in assay [2], 74 nM; in assay [3], 480 nM; in assay [4] it was 4 nM; in assay [5], 150 nM.

On to `O=C1CCCCc2c(Cl)cc3[nH]ncc3c2-c2ncc3c(nc(OC[C@@]45CCCN4C[C@H](F)C5)nc3c2F)N2CC[C@H]3CCN1[C@H]3C2` [Example 62, (28S,32R)-18-chloro-33-fluoro-4-(((2R,7aS)-2-fluorotetrahydro-1H-pyrrolo[1,2-a]pyrrol-7a(5H)-yl)methoxy)-1,3,5,9,14,15,25-heptaazaheptacyclo[23.5.2.1~6,10~.0~2,7~.0~11,19~.0~12,16~.0~28,32~]tritriaconta-2,4,6,8,10(33),11,13,16,18-nonaen-24-one], for which the IC50 in assay [1] is 3 nM; in assay [2] it was 4 nM; in assay [3], 70 nM; in assay [4], 2 nM; in assay [5], 10 nM.

For `O=C1OCCCc2c(Cl)cc3[nH]ncc3c2-c2ncc3c(nc(OC[C@@]45CCCN4C[C@H](F)C5)nc3c2F)N2CCCC[C@H](C2)O1` [Example 100, (26R)-18-chloro-32-fluoro-4-(((2R,7aS)-2-fluorotetrahydro-1H-pyrrolo[1,2-a]pyrrol-7a(5H)-yl)methoxy)-23,25-dioxa-1,3,5,9,14,15-hexaazahexacyclo[24.4.1.1~6,10~.0~2,7~.0~11,19~.0~12,16~]dotriaconta-2,4,6,8,10(32),11,13,16,18-nonaen-24-one], the IC50 in assay [1] turned out to be 2 nM; in assay [2] it was 4 nM; in assay [3], 60 nM; in assay [4], 1 nM; in assay [5] it was 10 nM.

As for `O=C1OCCCc2c(F)cc3[nH]ncc3c2-c2ncc3c(nc(OC[C@@]45CCCN4C[C@H](F)C5)nc3c2F)N2CCC[C@H](C2)O1` [Example 112], the IC50 was determined as 5 nM in assay [1]; 48 nM in assay [2]; 360 nM in assay [3]; 3 nM in assay [4]; 137 nM in assay [5].

Consider `Fc1c2ncc3c(nc(OC[C@@]45CCCN4C[C@H](F)C5)nc13)N1CCCC(C1)c1cnn(n1)CCCc1c(Cl)cc3[nH]ncc3c1-2` (stereo partly drawn) [Example 148], for which the IC50 is 7 nM in assay [1]; 42 nM in assay [2]; 460 nM in assay [3]; 5 nM in assay [4]; 165 nM in assay [5].

On to `Fc1c2ncc3c(nc(OC[C@@]45CCCN4C[C@H](F)C5)nc13)N1CCCC(C1)c1cnn(n1)C/C=C/c1c(Cl)cc3[nH]ncc3c1-2` (stereo partly drawn) [Example 149], for which the IC50 was found to be 60 nM in assay [1]; 33 nM in assay [2]; 470 nM in assay [3]; 34 nM in assay [4]; 154 nM in assay [5].

Turning to `Cc1cc2[nH]ncc2c2c1[C@H]1C[C@H]1COCC[C@@H]1CCCN(C1)c1nc(OC[C@@]34CCCN3C[C@H](F)C4)nc3c(F)c-2ncc13` [Example 153, (11S,13R,18S)-31-fluoro-25-(((2R,7aS)-2-fluorotetrahydro-1H-pyrrolo[1,2-a]pyrrol-7a(5H)-yl)methoxy)-9-methyl-15-oxa-5,6,22,24,26,30-hexaazaheptacyclo[25.3.1.1~18,22~.0~2,10~.0~3,7~.0~11,13~.0~23,28~]dotriaconta-1(31),2,4,7,9,23,25,27,29-nonaene], the IC50 in assay [1] is 3 nM; in assay [2] it was 9 nM; in assay [3] it was 210 nM; in assay [4], 3 nM; in assay [5], 32.5 nM.

Regarding `Fc1c2ncc3c(nc(OC[C@@]45CCCN4C[C@H](F)C5)nc13)N1CCC[C@H](C1)Cn1ncc(n1)/C=C\c1c(Cl)cc3[nH]ncc3c1-2` [Example 155, (11Z,18R)-9-chloro-31-fluoro-25-(((2R,7aS)-2-fluorotetrahydro-1H-pyrrolo[1,2-a]pyrrol-7a(5H)-yl)methoxy)-5,6,15,16,22,24,26,30,33-nonaazaheptacyclo[25.3.1.1~13,16~.1~18,22~.0~2,10~.0~3,7~.0~23,28~]tritriaconta-1(31),2,4,7,9,11,13(33),14,23,25,27,29-dodecaen], the IC50 in assay [1] is 6 nM; in assay [2], 52 nM; in assay [3], 720 nM; in assay [4] it was 5 nM; in assay [5] it was 302 nM.

On to `Fc1c2ncc3c(nc(OC[C@@]45CCCN4C[C@H](F)C5)nc13)N1CCC[C@H](C1)Cn1ncc(n1)CCc1c(Cl)cc3[nH]ncc3c1-2` [Example 156, (18R)-9-chloro-31-fluoro-25-(((2R,7aS)-2-fluorotetrahydro-1H-pyrrolo[1,2-a]pyrrol-7a(5H)-yl)methoxy)-5,6,15,16,22,24,26,30,33-nonaazaheptacyclo[25.3.1.1~13,16~.1~18,22~.0~2,10~.0~3,7~.0~23,28~]tritriaconta-1(31),2,4,7,9,13(33),14,23,25,27,29-undecaene], for which the IC50 in assay [1] was 12 nM; in assay [2], 110 nM; in assay [3], 720 nM; in assay [4] it was 3 nM; in assay [5], 367 nM.

For `Fc1c2ncc3c(nc(OC[C@@]45CCCN4C[C@H](F)C5)nc13)N1CCOC[C@H](C1)OC(=S)OCCCc1c(Cl)cc3[nH]ncc3c1-2` [Example 199, (26S)-18-chloro-32-fluoro-4-(((2R,7aS)-2-fluorotetrahydro-1H-pyrrolo[1,2-a]pyrrol-7a(5H)-yl)methoxy)-23,25,28-trioxa-1,3,5,9,14,15-hexaazahexacyclo[24.4.1.1~6,10~.0~2,7~.0~11,19~.0~12,16~]dotriaconta-2,4,6,8,10(32),11,13,16,18-nonaene-24-thione], the IC50 in assay [1] is 4 nM; in assay [2], 15.7 nM; in assay [3], 46 nM; in assay [4], 3 nM; in assay [5], 22 nM.

Consider `CN1CCC[C@H]1COc1nc2c3cnc(c(F)c3n1)-c1c(c(Cl)cc3[nH]ncc13)CCCOC(=O)O[C@@H]1COCCN2C1` [Example 207, (26S)-18-chloro-32-fluoro-4-(((2S)-1-methyl-2-pyrrolidinyl)methoxy)-23,25,28-trioxa-1,3,5,9,14,15-hexaazahexacyclo[24.4.1.1~6,10~.0~2,7~.0~11,19~.0~12,16~]dotriaconta-2,4,6,8,10(32),11,13,16,18-nonaen-24-one], for which the IC50 was found to be 4 nM in assay [1]; 14.7 nM in assay [2]; 196 nM in assay [3]; 2 nM in assay [4]; 58 nM in assay [5].

As to `O=C1OCCc2c(Cl)cc3[nH]ncc3c2-c2ncc3c(nc(OC[C@@]45CCCN4C[C@H](F)C5)nc3c2F)N2CCC[C@@H](CO1)C2` [Example 221], the IC50 in assay [1] was determined as 4 nM; in assay [2], 7.1 nM; in assay [3], 209 nM; in assay [4] it was 1 nM; in assay [5], 75 nM.
